Inconclusive results and toxic doses are left out. The calls were made as follows: active = survival T/C of 150% or more; inactive = T/C below 125% in these data. Peptide text beside a SMILES is read from it. * marks the point of attachment. Boc = CC(C)(C)OC(=O)*
System: P388 leukemia ip, CD2F1 mice, survival T/C
Test: NCI In Vivo Anticancer Drug Screen. Data for tumor model P388 Leukemia (intraperitoneal) in CD2F1 (CDF1) mice
Settings: endpoint: median survival time, higher = longer survival
Summary of the method: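 Mice carrying the transplanted tumor received test compound or vehicle. Survival was recorded in each group, and the value is the treated-group measurement divided by that of the vehicle-treated control group.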

[1] = dose: 50.0 mg/kg/injection, schedule: Q01DX005 (ip), vehicle: saline
[2] = dose: 100.0 mg/kg/injection, schedule: Q01DX005 (ip), vehicle: saline
[3] = dose: 200.0 mg/kg/injection, schedule: Q01DX005 (ip), vehicle: saline
[4] = dose: 50.0 mg/kg/injection, schedule: Q01DX009 (ip), vehicle: saline with Tween-80
[5] = dose: 50.0 mg/kg/injection, schedule: Q01DX005 (ip), vehicle: Klucel (hydroxypropylcellulose) (HPC)
[6] = dose: 100.0 mg/kg/injection, schedule: Q01DX005 (ip), vehicle: Klucel (hydroxypropylcellulose) (HPC)
[7] = dose: 200.0 mg/kg/injection, schedule: Q01DX005 (ip), vehicle: Klucel (hydroxypropylcellulose) (HPC)
[8] = dose: 60.0 mg/kg/injection, schedule: Q01DX005 (ip), vehicle: saline with Tween-80
[9] = dose: 120.0 mg/kg/injection, schedule: Q01DX005 (ip), vehicle: saline with Tween-80
[10] = dose: 240.0 mg/kg/injection, schedule: Q01DX005 (ip), vehicle: saline with Tween-80
[11] = dose: 50.0 mg/kg/injection, schedule: Q01DX009 (ip), vehicle: saline
[12] = dose: 100.0 mg/kg/injection, schedule: Q01DX009 (ip), vehicle: saline

Measured: T/C

CC(=O)OCC#CCN1CCC(C)CC1
inactive: [1] 97 % of control | [2] 95 % of control | [3] 102 % of control

CCN(CC)CCCC(C)n1c2nc(=O)[nH]c(=O)c-2nc2ccc(Cl)cc21 (stereo not drawn)
inactive: dose: 6.25 mg/kg/injection, schedule: Q01DX005 (ip), vehicle: saline 100 % of control | dose: 12.5 mg/kg/injection, schedule: Q01DX005 (ip), vehicle: saline 107 % of control | dose: 25.0 mg/kg/injection, schedule: Q01DX005 (ip), vehicle: saline 112 % of control

O=C(O)C[n+]1cccc2ccccc21
inactive: [1] 103 % of control | [2] 93 % of control | [3] 87 % of control

CC1(C)CC(=O)C2=C(C1)Nn1c(nnc1C(F)(F)F)S2
inactive: [4] 102 % of control | dose: 100.0 mg/kg/injection, schedule: Q01DX009 (ip), vehicle: saline with Tween-80 110 % of control | dose: 200.0 mg/kg/injection, schedule: Q01DX009 (ip), vehicle: saline with Tween-80 105 % of control

CCOC(=O)C(CCC(=O)O)NC(=O)C(CCSC)NC(=O)OC(C)(C)C (stereo not drawn) (Boc-Met-Glu-OEt; configuration not given here)
inactive: [5] 102 % of control | [6] 102 % of control | [7] 97 % of control

O=C1C=CC(CCCCCn2ccc(=O)[nH]c2=O)C(=O)N1 (stereo not drawn)
inactive: dose: 100.0 mg/kg/injection, schedule: Q01DX001 (ip), vehicle: saline 90 % of control | dose: 200.0 mg/kg/injection, schedule: Q01DX001 (ip), vehicle: saline 100 % of control | dose: 400.0 mg/kg/injection, schedule: Q01DX001 (ip), vehicle: saline 100 % of control

CCON1C(=O)C(C)c2ccccc21 (stereo not drawn)
inactive: [8] 98 % of control | [9] 102 % of control | [10] 102 % of control

O=C(CCCl)Nc1cccc(/C=C/C(=O)c2ccccc2NC(=O)CCCl)c1
inactive: [8] 99 % of control | [9] 99 % of control | [10] 93 % of control

CCN(CCc1ccc(N)cc1)C(Cc1ccccc1)c1cccc(OC)c1 (stereo not drawn)
inactive: dose: 12.5 mg/kg/injection, schedule: Q01DX009 (ip), vehicle: saline with Tween-80 95 % of control | dose: 25.0 mg/kg/injection, schedule: Q01DX009 (ip), vehicle: saline with Tween-80 95 % of control | [4] 87 % of control

CC(=O)OCC1OC(Nc2[nH]c(=O)[nH]c(=O)c2N=O)C(OC(C)=O)C(OC(C)=O)C1OC(C)=O (stereo not drawn)
inactive: dose: 60.0 mg/kg/injection, schedule: Q01DX005 (ip), vehicle: saline 111 % of control | dose: 120.0 mg/kg/injection, schedule: Q01DX005 (ip), vehicle: saline 103 % of control | dose: 240.0 mg/kg/injection, schedule: Q01DX005 (ip), vehicle: saline 103 % of control

O=C(O)CNC(=S)C(=S)NCC(=O)O
inactive: [5] 101 % of control | [6] 97 % of control | [7] 90 % of control

CCCCCC(=N\N=C(N)N)/C(C)=N/N=C(N)N
inactive: dose: 12.5 mg/kg/injection, schedule: Q01DX005 (ip), vehicle: saline with Tween-80 98 % of control | dose: 25.0 mg/kg/injection, schedule: Q01DX005 (ip), vehicle: saline with Tween-80 97 % of control | dose: 50.0 mg/kg/injection, schedule: Q01DX005 (ip), vehicle: saline with Tween-80 101 % of control | [1] 100 % of control

COCOCCC1C=CCC2C(=O)C=C(OC)C(O)C12C (stereo not drawn)
inactive: [5] 108 % of control | [6] 97 % of control | [7] 101 % of control

NC(=O)CC(=O)O
inactive: [11] 96 % of control | [12] 91 % of control | dose: 200.0 mg/kg/injection, schedule: Q01DX009 (ip), vehicle: saline 104 % of control

Oc1ccc(CCC2CCC(c3ccc(O)cc3)CO2)cc1 (stereo not drawn)
inactive: dose: 12.5 mg/kg/injection, schedule: Q01DX005 (ip), vehicle: Klucel (hydroxypropylcellulose) (HPC) 97 % of control | dose: 25.0 mg/kg/injection, schedule: Q01DX005 (ip), vehicle: Klucel (hydroxypropylcellulose) (HPC) 103 % of control | [5] 86 % of control | [6] 89 % of control | [7] 89 % of control

CNC(=O)c1ccccc1NC(=O)c1ccccc1N=[N+]=[N-]
inactive: [5] 100 % of control | [6] 100 % of control | [7] 98 % of control

CC(=O)OC1=CC(OC(C)=O)C2C(=O)C3=C(C(=O)c4ccccc4C3=O)C(=O)C2C1 (stereo not drawn)
inactive: dose: 100.0 mg/kg/injection, schedule: Q01DX001 (ip), vehicle: Klucel (hydroxypropylcellulose) (HPC) 105 % of control | dose: 200.0 mg/kg/injection, schedule: Q01DX001 (ip), vehicle: Klucel (hydroxypropylcellulose) (HPC) 102 % of control | dose: 400.0 mg/kg/injection, schedule: Q01DX001 (ip), vehicle: Klucel (hydroxypropylcellulose) (HPC) 93 % of control

CC1(C)CC(=O)OC/C=C\CC(Cc2ccccc2)C(=O)C1 (stereo not drawn)
inactive: dose: 100.0 mg/kg/injection, schedule: Q04DX003 (ip), vehicle: saline 104 % of control | dose: 200.0 mg/kg/injection, schedule: Q04DX003 (ip), vehicle: saline 97 % of control | dose: 400.0 mg/kg/injection, schedule: Q04DX003 (ip), vehicle: saline 96 % of control

CCOC(=O)C(=O)C1Cc2c(C)cc3cnc(OCC)cc3c2C1=O (stereo not drawn)
inactive: dose: 12.5 mg/kg/injection, schedule: Q01DX009 (ip), vehicle: distilled water + Tween-80 92 % of control | dose: 25.0 mg/kg/injection, schedule: Q01DX009 (ip), vehicle: distilled water + Tween-80 89 % of control | dose: 100.0 mg/kg/injection, schedule: Q01DX009 (ip), vehicle: distilled water + Tween-80 92 % of control | dose: 200.0 mg/kg/injection, schedule: Q01DX009 (ip), vehicle: distilled water + Tween-80 92 % of control

CC(=O)NC1CCOC1=O (stereo not drawn)
inactive: dose: 12.5 mg/kg/injection, schedule: Q01DX009 (ip), vehicle: water 95 % of control | dose: 25.0 mg/kg/injection, schedule: Q01DX009 (ip), vehicle: water 87 % of control | dose: 50.0 mg/kg/injection, schedule: Q01DX009 (ip), vehicle: water 109 % of control | dose: 100.0 mg/kg/injection, schedule: Q01DX009 (ip), vehicle: water 111 % of control | dose: 200.0 mg/kg/injection, schedule: Q01DX009 (ip), vehicle: water 92 % of control

COc1ccc2c(C[N+](C)(C)CCC#N)cc(=O)oc2c1
inactive: dose: 50.0 mg/kg/injection, schedule: Q04DX002 (ip), vehicle: saline 100 % of control | dose: 100.0 mg/kg/injection, schedule: Q04DX002 (ip), vehicle: saline 100 % of control | dose: 200.0 mg/kg/injection, schedule: Q04DX002 (ip), vehicle: saline 104 % of control

Cc1ccc(S(=O)(=O)N(CCOc2c3occc3cc3ccc(=O)oc23)CCN(CCN(CCOc2c3occc3cc3ccc(=O)oc23)S(=O)(=O)c2ccc(C)cc2)S(=O)(=O)c2ccc(C)cc2)cc1
inactive: dose: 100.0 mg/kg/injection, schedule: Q01DX001 (ip), vehicle: saline with Tween-80 87 % of control | dose: 200.0 mg/kg/injection, schedule: Q01DX001 (ip), vehicle: saline with Tween-80 86 % of control

CN(C)Cc1c(/C=C/C2=[N+](C)c3ccccc3C2(C)C)[nH]c2ccccc12
inactive: dose: 50.0 mg/kg/injection, schedule: Q01DX009 (ip), vehicle: Klucel (hydroxypropylcellulose) (HPC) 110 % of control | dose: 100.0 mg/kg/injection, schedule: Q01DX009 (ip), vehicle: Klucel (hydroxypropylcellulose) (HPC) 107 % of control | dose: 200.0 mg/kg/injection, schedule: Q01DX009 (ip), vehicle: Klucel (hydroxypropylcellulose) (HPC) 110 % of control

C/C=C1\CC2(OC1=O)C(=O)NC(=O)NC2=O
inactive: [11] 103 % of control | [12] 94 % of control

CC1=C(C#N)C(=O)OC1(C)C(CC(=O)c1ccccc1)c1ccccc1 (stereo not drawn)
inactive: [8] 92 % of control | [9] 87 % of control | [10] 91 % of control

CCCCCCCC[N+](C)(CCCCCCCC)CCCCCCCC
inactive: dose: 1.0 mg/kg/injection, schedule: Q04DX003 (ip), vehicle: saline 104 % of control | dose: 2.0 mg/kg/injection, schedule: Q04DX003 (ip), vehicle: saline 104 % of control | dose: 4.0 mg/kg/injection, schedule: Q04DX003 (ip), vehicle: saline 108 % of control

CSc1nc(=O)n(CCC#N)nc1SC
inactive: dose: 60.0 mg/kg/injection, schedule: Q01DX005 (ip), vehicle: Klucel (hydroxypropylcellulose) (HPC) 98 % of control | dose: 120.0 mg/kg/injection, schedule: Q01DX005 (ip), vehicle: Klucel (hydroxypropylcellulose) (HPC) 92 % of control | dose: 240.0 mg/kg/injection, schedule: Q01DX005 (ip), vehicle: Klucel (hydroxypropylcellulose) (HPC) 92 % of control

CC(NC(=O)C(C)NC(=O)C(N)CCC(=O)O)C(=O)O (stereo not drawn) (H-Glu-Ala-Ala-OH; configuration not given here)
inactive: [1] 104 % of control | [2] 104 % of control | [3] 103 % of control

Reference: PubChem BioAssay AID330 (DTP/NCI, 2004)
